Source: patent US20230278996A1, “YKL-40 INHIBITORS AND THEIR THERAPEUTIC APPLICATIONS” (Molecure S.A., priority 2022, published 2023)

molecular target: YKL-40 (Homo sapiens (Human), UniProt P36222); experiment: YKL-40:4 assay, competitive chitin binding site AlphaScreen; conditions: competition with biotinylated compound 4 (20 nM), YKL-40-histag 2.5 nM
Sequence (P36222 22-383): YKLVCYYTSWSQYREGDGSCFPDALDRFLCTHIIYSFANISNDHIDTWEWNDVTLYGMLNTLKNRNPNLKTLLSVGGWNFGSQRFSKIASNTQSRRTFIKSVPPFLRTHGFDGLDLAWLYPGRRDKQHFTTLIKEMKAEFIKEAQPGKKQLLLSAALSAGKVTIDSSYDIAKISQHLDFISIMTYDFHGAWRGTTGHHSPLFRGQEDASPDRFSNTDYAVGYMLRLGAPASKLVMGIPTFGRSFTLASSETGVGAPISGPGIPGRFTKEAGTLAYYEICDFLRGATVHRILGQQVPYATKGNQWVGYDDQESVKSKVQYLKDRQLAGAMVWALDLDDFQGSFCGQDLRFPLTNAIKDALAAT

| SMILES | IC50 [nM] |
| --- | --- |
| CC1CC(N2C[C@H](C)OC[C@@H]2Cc2ccc(Cl)cc2)CCN1c1cc(Cl)ccn1 (single isomer, unassigned) [Example 31, 2,2,2-trifluoroacetate] | 1000 to 10000 |
| CC1CC(N2C[C@H](C)OC[C@@H]2Cc2ccc(Cl)cc2)CCN1c1cc(Cl)ccn1 (single isomer, unassigned) [Example 32, 2,2,2-trifluoroacetate] | < 100 |
| CC(C)C[C@H]1CN(C2CCN(c3ccccn3)CC2)[C@@H](Cc2ccc(Cl)cc2)CN1C(=O)OC(C)(C)C [Example 2e, tert-butyl (2S,5S)-5-(4-chlorobenzyl)-2-isobutyl-4-(1-(pyridin-2-yl)piperidin-4-yl)piperazine-1-carboxylate] | > 100000 |
| COCCOCCOCCOCCOCCOCCOCCOCCOCCOCCOCCOCCC(=O)OC[C@H]1CN(C2CCN(c3ccccn3)CC2)[C@@H](Cc2ccc(Cl)cc2)CO1 [Example 7, ((2R,5S)-5-(4-chlorobenzyl)-4-(1-(pyridin-2-yl)piperidin-4-yl)morpholin-2-yl)methyl 2,5,8,11,14,17,20,23,26,29,32,35-dodecaoxaoctatriacontan-38-oate 2,2,2-trifluoroacetate] | 100 to 1000 |
| C[C@H]1CN(C2CCN(C(=O)OC(C)(C)C)CC2)[C@@H](Cc2ccc(Cl)cc2)CO1 [Example 8d, tert-butyl 4-((2S,5S)-5-(4-chlorobenzyl)-2-methylmorpholino)piperidine-1-carboxylate] | > 100000 |
| C[C@H]1CN(C2CCN(c3ccc(F)cn3)CC2)[C@@H](Cc2ccc(Cl)cc2)CO1 [Example 9, (2S,5S)-5-(4-chlorobenzyl)-4-(1-(5-fluoropyridin-2-yl)piperidin-4-yl)-2-methylmorpholine 2,2,2-trifluoroacetate] | 1000 to 10000 |
| C[C@H]1CN(C2CCN(c3ccc(Cl)cn3)CC2)[C@@H](Cc2ccc(Cl)cc2)CO1 [Example 11, (2S,5S)-5-(4-chlorobenzyl)-4-(1-(5-chloropyridin-2-yl)piperidin-4-yl)-2-methylmorpholine 2,2,2-trifluoroacetate] | 100 to 1000 |
| C[C@H]1CN(C2CCN(c3cnccn3)CC2)[C@@H](Cc2ccc(Cl)cc2)CO1 [Example 12, (2S,5S)-5-(4-chlorobenzyl)-2-methyl-4-(1-(pyrazin-2-yl)piperidin-4-yl)morpholine 2,2,2-trifluoroacetate] | 1000 to 10000 |
| C[C@H]1CN(C2CCN(c3cccc(Cl)n3)CC2)[C@@H](Cc2ccc(Cl)cc2)CO1 [Example 14, (2S,5S)-5-(4-chlorobenzyl)-4-(1-(6-chloropyridin-2-yl)piperidin-4-yl)-2-methylmorpholine 2,2,2-trifluoroacetate] | 1000 to 10000 |
| C[C@H]1CN(C2CCN(c3ccnc(F)c3)CC2)[C@@H](Cc2ccc(Cl)cc2)CO1 [Example 15, (2S,5S)-5-(4-chlorobenzyl)-4-(1-(2-fluoropyridin-4-yl)piperidin-4-yl)-2-methylmorpholine 2,2,2-trifluoroacetate] | 1000 to 10000 |
| Cc1cccnc1N1CCC(N2C[C@H](C)OC[C@@H]2Cc2ccc(Cl)cc2)CC1 [Example 16, (2S,5S)-5-(4-chlorobenzyl)-2-methyl-4-(1-(3-methylpyridin-2-yl)piperidin-4-yl)morpholine 2,2,2-trifluoroacetate] | > 100000 |
| C[C@H]1CN(C2CCN(c3cccc(C#N)n3)CC2)[C@@H](Cc2ccc(Cl)cc2)CO1 [Example 18, 6-(4-((2S,5S)-5-(4-chlorobenzyl)-2-methylmorpholino)piperidin-1-yl)picolinonitrile 2,2,2-trifluoroacetate] | > 100000 |
| C[C@H]1CN(C2CCN(c3ccc(C#N)cn3)CC2)[C@@H](Cc2ccc(Cl)cc2)CO1 [Example 19, 6-(4-((2S,5S)-5-(4-chlorobenzyl)-2-methylmorpholino)piperidin-1-yl)nicotinonitrile 2,2,2-trifluoroacetate] | > 100000 |
| C[C@H]1CN(C2CCN(c3cc(C(F)(F)F)ccn3)CC2)[C@@H](Cc2ccc(Cl)cc2)CO1 [Example 20, (2S,5S)-5-(4-chlorobenzyl)-2-methyl-4-(1-(4-(trifluoromethyl)pyridin-2-yl)piperidin-4-yl)morpholine 2,2,2-trifluoroacetate] | 1000 to 10000 |
| C[C@H]1CN(C2CCN(c3ncccc3C#N)CC2)[C@@H](Cc2ccc(Cl)cc2)CO1 [Example 22, 2-(4-((2S,5S)-5-(4-chlorobenzyl)-2-methylmorpholino)piperidin-1-yl)nicotinonitrile 2,2,2-trifluoroacetate] | 100 to 1000 |
| C[C@H]1CN(C2CCN(c3ncccc3Cl)CC2)[C@@H](Cc2ccc(Cl)cc2)CO1 [Example 23, (2S,5S)-5-(4-chlorobenzyl)-4-(1-(3-chloropyridin-2-yl)piperidin-4-yl)-2-methylmorpholine 2,2,2-trifluoroacetate] | 1000 to 10000 |
| C[C@H]1CN(C2CCN(c3cc(F)ncn3)CC2)[C@@H](Cc2ccc(Cl)cc2)CO1 [Example 24, (2S,5S)-5-(4-chlorobenzyl)-4-(1-(6-fluoropyrimidin-4-yl)piperidin-4-yl)-2-methylmorpholine 2,2,2-trifluoroacetate] | > 100000 |
| C[C@H]1CN(C2CCN(c3ncc(F)cc3F)CC2)[C@@H](Cc2ccc(Cl)cc2)CO1 [Example 25, (2S,5S)-5-(4-chlorobenzyl)-4-(1-(3,5-difluoropyridin-2-yl)piperidin-4-yl)-2-methylmorpholine 2,2,2-trifluoroacetate] | > 100000 |
| C[C@H]1CN(C2CCN(c3ccncn3)CC2)[C@@H](Cc2ccc(Cl)cc2)CO1 [Example 26, (2S,5S)-5-(4-chlorobenzyl)-2-methyl-4-(1-(pyrimidin-4-yl)piperidin-4-yl)morpholine 2,2,2-trifluoroacetate] | > 100000 |
| C[C@H]1CN(C2CCN(c3cccnc3)CC2)[C@@H](Cc2ccc(Cl)cc2)CO1 [Example 27, (2S,5S)-5-(4-chlorobenzyl)-2-methyl-4-(1-(pyridin-3-yl)piperidin-4-yl)morpholine 2,2,2-trifluoroacetate] | > 100000 |
| C[C@H]1CN(C2CCN(c3ccncc3)CC2)[C@@H](Cc2ccc(Cl)cc2)CO1 [Example 28, (2S,5S)-5-(4-chlorobenzyl)-2-methyl-4-(1-(pyridin-4-yl)piperidin-4-yl)morpholine 2,2,2-trifluoroacetate] | > 100000 |
| COc1ccnc(N2CCC(N3C[C@H](C)OC[C@@H]3Cc3ccc(Cl)cc3)CC2)c1 [Example 29, (2S,5S)-5-(4-chlorobenzyl)-4-(1-(4-methoxypyridin-2-yl)piperidin-4-yl)-2-methylmorpholine 2,2,2-trifluoroacetate] | 100 to 1000 |
| Cc1cnnc(N2CCC(N3C[C@H](C)OC[C@@H]3Cc3ccc(Cl)cc3)CC2)c1 [Example 30, (2S,5S)-5-(4-chlorobenzyl)-2-methyl-4-(1-(5-methylpyridazin-3-yl)piperidin-4-yl)morpholine 2,2,2-trifluoroacetate] | 1000 to 10000 |
| CC1CC(N2C[C@H](C)OC[C@@H]2Cc2ccc(Cl)cc2)CCN1c1cc(Cl)ccn1 (stereo partly drawn) [Example 33, (2S,5S)-5-(4-chlorobenzyl)-4-(1-(4-chloropyridin-2-yl)-2-methylpiperidin-4-yl)-2-methylmorpholine 2,2,2-trifluoroacetate] | 1000 to 10000 |
| CC1CC(N2C[C@H](C)OC[C@@H]2Cc2ccc(Cl)cc2)CCN1c1cc(Cl)ccn1 (stereo partly drawn) [Example 34, (2S,5S)-5-(4-chlorobenzyl)-4-(1-(4-chloropyridin-2-yl)-2-methylpiperidin-4-yl)-2-methylmorpholine 2,2,2-trifluoroacetate] | 100 to 1000 |
